From ChEMBL document CHEMBL5052842, “Pharmaceutical compounds and their use as inhibitors of ubiquitin specific protease 19 (usp19)” (2020)

Target: T1, Ubiquitin carboxyl-terminal hydrolase 19 (Homo sapiens, UniProt O94966)
T1 sequence (O94966 whole entry): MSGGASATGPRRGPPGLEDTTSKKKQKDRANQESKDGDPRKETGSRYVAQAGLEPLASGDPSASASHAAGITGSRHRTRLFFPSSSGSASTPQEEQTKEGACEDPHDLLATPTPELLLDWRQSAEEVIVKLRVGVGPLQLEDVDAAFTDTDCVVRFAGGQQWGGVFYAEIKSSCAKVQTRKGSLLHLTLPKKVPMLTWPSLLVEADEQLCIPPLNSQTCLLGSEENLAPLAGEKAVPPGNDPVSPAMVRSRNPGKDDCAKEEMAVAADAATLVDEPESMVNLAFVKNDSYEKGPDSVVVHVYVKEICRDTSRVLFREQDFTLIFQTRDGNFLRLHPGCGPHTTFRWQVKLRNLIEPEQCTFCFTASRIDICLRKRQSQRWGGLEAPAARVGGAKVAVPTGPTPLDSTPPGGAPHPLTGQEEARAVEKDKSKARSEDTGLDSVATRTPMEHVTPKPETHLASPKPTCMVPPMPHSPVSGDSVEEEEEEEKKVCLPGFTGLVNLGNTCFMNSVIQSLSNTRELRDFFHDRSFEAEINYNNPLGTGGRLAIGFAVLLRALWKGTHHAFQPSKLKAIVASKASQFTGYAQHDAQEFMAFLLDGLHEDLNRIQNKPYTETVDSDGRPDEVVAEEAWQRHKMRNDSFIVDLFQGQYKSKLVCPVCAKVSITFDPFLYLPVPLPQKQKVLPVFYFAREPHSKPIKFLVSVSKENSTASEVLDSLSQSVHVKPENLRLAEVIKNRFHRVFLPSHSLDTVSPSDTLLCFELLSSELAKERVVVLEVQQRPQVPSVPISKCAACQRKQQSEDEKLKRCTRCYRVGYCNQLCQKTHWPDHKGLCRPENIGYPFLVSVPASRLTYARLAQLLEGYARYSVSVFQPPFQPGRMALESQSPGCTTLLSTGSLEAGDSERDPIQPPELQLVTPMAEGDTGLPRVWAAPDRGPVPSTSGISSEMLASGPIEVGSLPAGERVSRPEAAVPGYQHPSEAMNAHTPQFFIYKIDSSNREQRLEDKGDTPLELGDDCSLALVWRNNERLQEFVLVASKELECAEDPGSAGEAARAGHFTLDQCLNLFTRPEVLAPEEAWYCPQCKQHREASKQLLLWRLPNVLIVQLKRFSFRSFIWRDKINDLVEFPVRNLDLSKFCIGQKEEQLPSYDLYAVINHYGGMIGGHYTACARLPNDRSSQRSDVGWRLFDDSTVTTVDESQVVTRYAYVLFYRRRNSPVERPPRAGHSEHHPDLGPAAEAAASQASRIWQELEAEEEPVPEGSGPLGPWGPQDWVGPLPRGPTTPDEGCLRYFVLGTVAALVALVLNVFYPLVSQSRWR
Test: Inhibition of C-terminal His6-tagged recombinant human USP19 using iso-peptide ubiquitin-Lys-TAMRA as substrate incubated for 30 mins and measured after 90 mins by fluorescent polarization assay

IC50, < 500 nM:
Cn1ccc(-c2cc(=O)n(C[C@]3(O)CCN(C(=O)N4CCNC[C@H]4c4ccccc4)CC34CCCC4)cn2)n1, O=C(N1CC[C@@](O)(Cn2ccc(C3CC3)cc2=O)C2(CCCC2)C1)N1CCNC[C@H]1c1ccccc1, O=C(N1CCC(O)(Cn2cc(F)c(-c3ccccc3)cc2=O)C2(CCCC2)C1)N1CCNC[C@H]1c1ccccc1 (some centres undefined), Cn1cc(-c2ccn(C[C@]3(O)CCN(C(=O)N4CCNC[C@H]4c4ccccc4)CC34CCCC4)c(=O)c2)cn1, O=C(N1CCC(O)(Cn2cnc(-c3ccccc3)cc2=O)C2(CCOCC2)C1)N1CCOC[C@H]1c1ccccc1 (some centres undefined), COc1cccc(-c2cc(=O)n(C[C@]3(O)CCN(C(=O)N4CCNC[C@H]4c4ccccc4)CC34CCCC4)cn2)c1, COc1ccc(-c2cc(=O)n(C[C@]3(O)CCN(C(=O)N4CCNC[C@H]4c4ccccc4)CC34CCCC4)cn2)s1, O=C(N1CC[C@@](O)(Cn2cnc(N3CCC(F)CC3)cc2=O)C2(CCCC2)C1)N1CCNC[C@H]1c1ccccc1, O=C(N1CC[C@@](O)(Cn2ccc(N3CCCC3)cc2=O)C2(CCCC2)C1)N1CCNC[C@H]1c1ccccc1, O=C(N1CC[C@@](O)(Cn2cnc(-c3ccccc3F)cc2=O)C2(CCCC2)C1)N1CCNC[C@H]1c1cccc(F)c1, O=C(N1CC[C@@](O)(Cn2cnc(N3CC4CC4C3)cc2=O)C2(CCCC2)C1)N1CCNC[C@H]1c1ccccc1 (some centres undefined), Cn1nc(C(F)(F)F)cc1-c1cc(=O)n(C[C@]2(O)CCN(C(=O)N3CCNC[C@H]3c3ccccc3)CC23CCCC3)cn1, O=C(N1CC[C@@](O)(Cn2cnc(-c3ccsc3)cc2=O)C2(CCCC2)C1)N1CCNC[C@H]1c1ccccc1, O=C(N1CC[C@@](O)(Cn2cnc(-c3ccccc3C(F)F)cc2=O)C2(CCCC2)C1)N1CCNC[C@H]1c1ccccc1, N=S1(=O)CCN(C(=O)N2CC[C@@](O)(Cn3cnc(-c4ccccc4)cc3=O)C3(CCCC3)C2)C(c2ccccc2)C1 (some centres undefined), O=C(N1CC[C@@](O)(Cn2cnc(-c3ccccc3)cc2=O)C2(CCCC2)C1)N1CCNC[C@H]1c1cccc(F)c1F, O=C(N1CC[C@@](O)(Cn2cnc(-c3ccccc3)cc2=O)C2(CCCC2)C1)N1CCNC[C@H]1c1ccc(F)cc1, O=C(N1CC[C@@](O)(Cn2cnc(-c3ccc4c(c3)CCO4)cc2=O)C2(CCCC2)C1)N1CCNC[C@H]1c1ccccc1, COc1ccccc1-c1cc(=O)n(C[C@]2(O)CCN(C(=O)N3CCNC[C@H]3c3cccc(F)c3)CC23CCCC3)cn1, O=C(N1CC[C@@](O)(Cn2cnc(N3CCC(F)(F)CC3)cc2=O)C2(CCCC2)C1)N1CCNC[C@H]1c1ccccc1, O=C(N1CC[C@@](O)(Cn2cnc(-c3ccccc3)cc2=O)C2(CCCC2)C1)N1CCNCC1c1ccc(C(F)(F)F)cc1 (some centres undefined), O=C(N1CC[C@@](O)(Cn2cnc(-c3ccccc3C(F)(F)F)cc2=O)C2(CCCC2)C1)N1CCNC[C@H]1c1ccccc1, O=C(N1CC[C@@](O)(Cn2cnc(-c3ccccc3)cc2=O)C2(CCCC2)C1)N1CCS(=O)(=O)CC1c1ccccc1 (some centres undefined), O=C(N1CC[C@@](O)(Cn2cnc(-c3ccc(OC4CC4)cc3)cc2=O)C2(CCCC2)C1)N1CCNC[C@H]1c1ccccc1, O=C(N1CC[C@@](O)(Cn2cnc(-c3ccccc3)cc2=O)C2(CCCC2)C1)N1CCNCC1c1ccsc1 (some centres undefined), O=C1CN(C(=O)N2CC[C@@](O)(Cn3cnc(-c4ccccc4)cc3=O)C3(CCCC3)C2)[C@H](c2ccccc2)CN1, O=C(N1CC[C@@](O)(Cn2cnc(N3CCCC(F)(F)C3)cc2=O)C2(CCCC2)C1)N1CCNC[C@H]1c1ccccc1, O=C(N1CC[C@@](O)(Cn2cnc(N3CCCCC3)cc2=O)C2(CCCC2)C1)N1CCNC[C@H]1c1ccccc1, O=C(N1CC[C@@](O)(Cn2cnc(-c3ccccc3)cc2=O)C2(CCCC2)C1)N1CCNCC1c1ccccc1F (some centres undefined), Cn1nccc1-c1ccn(C[C@]2(O)CCN(C(=O)N3CCNC[C@H]3c3ccccc3)CC23CCCC3)c(=O)c1, Cc1ccc(-c2cc(=O)n(C[C@]3(O)CCN(C(=O)N4CCNC[C@H]4c4ccccc4)CC34CCCC4)cn2)cc1, O=C(N1CC[C@@](O)(Cn2cnc(-c3ccc4c(c3)OCC4)cc2=O)C2(CCCC2)C1)N1CCNC[C@H]1c1ccccc1, Cc1cccc(-c2cc(=O)n(C[C@]3(O)CCN(C(=O)N4CCNC[C@H]4c4ccccc4)CC34CCCC4)cn2)c1, O=C(N1CC[C@@](O)(Cn2cnc(-c3ccccc3)cc2=O)C2(CCCC2)C1)N1CCSCC1c1ccccc1 (some centres undefined), O=C(N1CC[C@@](O)(Cn2cnc(-c3ccccc3)cc2=O)C2(CCCC2)C1)N1CCN(CC(F)(F)F)C[C@H]1c1ccccc1, O=C(N1CC[C@@](O)(Cn2cnc(-c3ccccc3)cc2=O)C2(CCCC2)C1)N1CCNC[C@H]1c1ccc(F)cc1F, O=C(N1CC[C@@](O)(Cn2cnc(-c3ccccc3OC(F)F)cc2=O)C2(CCCC2)C1)N1CCNC[C@H]1c1ccccc1, O=C(N1CC[C@@](O)(Cn2cnc(-c3cccs3)cc2=O)C2(CCCC2)C1)N1CCNC[C@H]1c1ccccc1, O=C(N1CC[C@@](O)(Cn2cnc(-c3ccc(Cl)cc3)cc2=O)C2(CCCC2)C1)N1CCNC[C@H]1c1ccccc1, O=C(N1CC[C@@](O)(Cn2cnc(-c3ccccc3OC(F)(F)F)cc2=O)C2(CCCC2)C1)N1CCNC[C@H]1c1ccccc1, O=C(N1CC[C@@](O)(Cn2cnc(-c3ccccc3OC3CC3)cc2=O)C2(CCCC2)C1)N1CCNC[C@H]1c1ccccc1, O=C(N1CC[C@@](O)(Cn2cnc(-c3ccccc3)cc2=O)C2(CCCC2)C1)N1CCNCC1c1cccs1 (some centres undefined), Cc1ccccc1-c1cc(=O)n(C[C@]2(O)CCN(C(=O)N3CCNC[C@H]3c3ccccc3)CC23CCCC3)cn1, O=C(N1CC[C@@](O)(Cn2cnc(N3CCC(F)(F)C3)cc2=O)C2(CCCC2)C1)N1CCNC[C@H]1c1ccccc1, O=C(N1CC[C@@](O)(Cn2cnc(N3CC(F)(F)C3)cc2=O)C2(CCCC2)C1)N1CCNC[C@H]1c1ccccc1, O=C(N1CC[C@@](O)(Cn2ccc(Cl)cc2=O)C2(CCCC2)C1)N1CCNC[C@H]1c1ccccc1, COc1cc(=O)n(C[C@]2(O)CCN(C(=O)N3CCNC[C@H]3c3ccccc3)CC23CCCC3)cn1, O=C(N1CC[C@@](O)(Cn2cnc(-c3ccc4c(c3)COC4)cc2=O)C2(CCCC2)C1)N1CCNC[C@H]1c1ccccc1, COc1ccc(-c2cc(=O)n(C[C@]3(O)CCN(C(=O)N4CCNC[C@H]4c4ccccc4)CC34CCCC4)cn2)cc1
